In ChEMBL document CHEMBL1201862, “PubChem BioAssay data set” (2004):
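Grown in 96-well plates, cells were treated for 48 hours with each compound at five concentrations. Insufficient inhibition: endpoint recorded as highest concentration tested. GI50 = concentration required for 50% inhibition of growth.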 The source made the active and inactive calls. No stated cut-off is given here; in the data, active = GI50 up to about 1.1 µM and inactive = higher.

Assays:
Assay in all cases: DTP human tumour cell line panel, 48 h
[1] = tested on: HOP-62
[2] = tested on: HL-60
[3] = tested on: UO-31
[4] = tested on: Malme-3M
[5] = tested on: K562
[6] = tested on: NCI-H460
[7] = tested on: KM12
[8] = tested on: RPMI-8226
[9] = tested on: MCF7
[10] = tested on: COLO 205
[11] = tested on: ACHN
[12] = tested on: PC-3
[13] = tested on: OVCAR-3
[14] = tested on: CAKI-1
[15] = tested on: SF-268
[16] = tested on: SK-OV-3
[17] = tested on: CCRF-CEM
[18] = tested on: MDA-N
[19] = tested on: SK-MEL-2
[20] = tested on: SW-620

Measured: GI50

COc1nc(NC2OC(COC(C)=O)C(OC(C)=O)C(OC(C)=O)C2OC(C)=O)c(/N=C/C=N/c2c(NC3OC(COC(C)=O)C(OC(C)=O)C(OC(C)=O)C3OC(C)=O)nc(OC)n(C)c2=O)c(=O)n1C (stereo not given)
inactive: [1] 28.1 µM | [2] > 100 µM | [3] > 100 µM | [4] > 100 µM | [5] > 100 µM | [6] > 100 µM | [7] > 100 µM | [8] > 100 µM | [9] > 100 µM | [10] > 100 µM | [11] > 100 µM | [12] > 100 µM | [13] > 100 µM | [14] > 100 µM | [15] > 70.3 µM | [16] > 88.3 µM | [17] > 100 µM | [18] > 100 µM | [19] > 100 µM | [20] > 100 µM

CCOC(=O)c1cc2nc3ccccc3c(=O)n2c2ccccc12
inactive: [1] > 10 µM | [2] > 10 µM | [3] > 10 µM | [4] > 10 µM | [5] > 10 µM | [6] > 10 µM | [7] > 10 µM | [8] > 10 µM | [9] > 10 µM | [10] > 10 µM | [11] > 10 µM | [12] > 10 µM | [13] > 10 µM | [14] > 10 µM | [15] > 10 µM | [16] > 10 µM | [17] > 10 µM | [18] > 10 µM | [19] > 10 µM | [20] > 10 µM

O=[N+]([O-])c1cc2c(c3nonc13)OCCCCO2
inactive: [1] 4.37 µM | [2] 2.55 µM | [3] 4.19 µM | [4] 3.66 µM | [5] 3.64 µM | [6] 3.76 µM | [7] 4.37 µM | [8] 3.7 µM | [9] 7.76 µM | [10] 4.95 µM | [11] 6.22 µM | [12] 14.9 µM | [13] 2.19 µM | [14] 14.3 µM | [15] 3.37 µM | [16] 26.4 µM | [17] 1.5 µM | [18] 4.13 µM | [19] 13.8 µM | [20] 5.86 µM
